Data set [1] has as its system NCTC2544 cells. The data set can be described thus: Antioxidant test: production of reactive oxygen species (ROS), DCFH-DA spectrofluorometry. It is filed as cell-based, human. The following applies: for Concentration of ROS products compared to control cells treated with H2O2: 1.5 h, α-tocopherol 250 μg/ml, spermidine and N-methylspermidine 1 nM-1 mM. The protocol:
The production of reactive oxygen species (ROS) was monitored by spectrofluorometry using 2′,7′-dichlorofluorescein diacetate (DCFH-DA) as described by Tobi et al. (Tobi S E, Paul N, T McMillan J. J Photochem. Photobiol, B 2000: 57: 102-112).
The aforementioned NCTC2544 cells (˜80% confluence) were detached with trypsin/EDTA and seeded at a density of 5×10^4 cells per well, in 96-well plates. Subsequently, the cells were treated with the N-methylspermidine according to the invention and spermidine. The following concentrations of N-methylspermidine and spermidine were tested: 1 nM, 500 nM, 1 μM, 500 μM, 1 mM (final concentration in the culture medium).
α-tocopherol (250 μg/ml) was used as a comparison. The plates were incubated at 37° C., in 5% CO2, for 1.5 h. The cells grown on basal medium with 10% FBS were used as a control.

In data set [2] the test system is hair follicles (HF) in anagen VI phase from human scalp skin. The data set is described as follows: Hair shaft elongation test, ex vivo organ culture of hair follicles. The class given is cell-based. The conditions noted are these: 0.5 μM, day 6; for Elongation of the hair shaft with respect to the vehicle: every 48 hours. On the procedure: The activity of N-methylspermidine was tested in an ex vivo model which made it possible to measure the effect on the elongation of the hair shaft. The organ culture of hair follicles (HF) in anagen VI phase involved microdissection of HF from the skin of the human scalp (temporo-frontal area) after informed consent from the subjects who were undergoing surgery (face lifts), in accordance with the Helsinki Declaration and with the approval of the Ethics Committee of the University of Lübeck. […] For immunohistochemical studies, the isolated follicles were cultured for 6 consecutive days. Spermidine, N-methylspermidine and the vehicle (distilled water) were administered once for each change of culture medium (every 48 hours), at a concentration of 0.5 μM. The measurements of the shaft elongation after the treatment with vehicle, spermidine and N-methylspermidine were taken on days 0, 1, 4 and 6, using a Zeiss inverted binocular microscope with one eyepiece containing a reticle (Carl Zeiss, Oberkochen, Germany).

The test system is the same in data set [3]. The data set can be described thus: Anagen and catagen phases in the ex vivo hair follicle model. It is filed as cell-based. The protocol:
The organ culture of hair follicles (HF) in anagen VI phase involved microdissection of HF from the skin of the human scalp (temporo-frontal area) after informed consent from the subjects who were undergoing surgery (face lifts), in accordance with the Helsinki Declaration and with the approval of the Ethics Committee of the University of Lübeck. […] For immunohistochemical studies, the isolated follicles were cultured for 6 consecutive days. Spermidine, N-methylspermidine and the vehicle (distilled water) were administered once for each change of culture medium (every 48 hours), at a concentration of 0.5 μM. The following results for the anagen and catagen phases, summarised in the graphs of FIGS. 5 and 6, were also obtained from the same ex vivo model of hair follicles (HF) described for the previous test of elongation of the hair shaft.

The nature of data set [4]: Reactivity: air oxidation, chemiluminometric determination of N-nitroso derivatives. The class given is physicochemical. The conditions noted are these: 2 mM aqueous solution diluted with water/ethanol (85/15), exposed to ambient air 72 h. From the text:
The properties of 1,4-butanediamine,N-(3-aminopropyl)-N^1-methyl (II) and 1,4-butanediamine,N-(3-aminopropyl)-N^1-cyclohexyl (III) after exposure to air were studied by comparison with the corresponding non-substituted derivative, in which the N^1 amine group lacking the R substituent becomes a secondary amine group, namely 1,4-butanediamine,N-(3-aminopropyl). Since one of the common products of oxidation of the secondary amino group takes the form of the N-nitroso derivatives which are formed by reaction with the nitrogen oxides present in the air, the nitrosated derivatives which were formed upon leaving a solution of the test compounds in contact with the ambient air were determined as a parameter of reactivity.
The instrumentation used consisted of a stage on which both the analysis of the nitrite ions and the analysis of the N-nitrosamines were carried out, the latter under strong denitrosating conditions. The nitrogen oxide which developed in accordance with the amount of nitrite ions and that which developed in accordance with the quantity of nitroso groups were evaluated by way of a chemiluminometric detector.
The content of NO^2− ions was analysed using a reducing mixture of acetic acid/potassium iodide (5 ml/1 ml of 5% H2O soln.) at a temperature of 0-4° C. The nitroso groups were analysed using a denitrosating mixture of acetic acid/hydrobromic acid (5 ml/1 ml) at a temperature of 70° C.
The method for determining air oxidation of the compound was as follows.
a) a 2 mM solution of the test substance in purified water was doubly seeded, at an amount equal to 500 μl in appropriate wells of six-well plates of inert plastics material (polystyrene);
b) the solution in each well was diluted with 500 μl of a mixture of purified water and ethanol (85/15) free from contamination. This promotes the dispersion of the liquid film on the surface of the well;
c) the plate prepared in this manner is exposed to ambient air for 72 h
d) at the end of the exposure time, the residue in the well is eluted with 1 ml of purified water and then used for the chemiluminometric analysis.

Data set [5] deals with NCTC2544 human keratinocytes. The data set is described as follows: MTT Assay (cell viability / cytotoxicity). It is filed as cell-based. The conditions noted are these: 1 nM, 500 nM, 24 or 48 hours exposure. The source says:
MTT Assay is a test used for analysing cell viability (Mosmann, 1983). It is a colorimetric test based on the use of the tetrazolium salt MTT, which measures cell viability which can then be quantified by a microplate spectrophotometric reader. MTT (3-(4,5-dimethylthiazol-2-yl)-2,5-diphenyltetrazolium bromide, a tetrazole), a yellow compound, is reduced to formazan, a purple substance, in cellular mitochondria. The absorbance of this coloured solution can be quantified by measuring it at a given wavelength (570 nm) using a spectrophotometer. The maximum absorbance will depend on the solvent used. This reduction only takes place when the mitochondrial reductase enzymes are active, and the conversion to formazan can therefore be related directly to the number of viable cells. When the amount of formazan produced by cells treated with a substance is compared with the amount produced by untreated control cells, it is possible to deduce the efficacy of the tested substance in causing cell death by producing a dose-response curve. The solutions of MTT solubilised in PBS or cell culture medium, without phenol red, are of a yellowish colour. […] The resulting purple solution is analysed by spectrophotometry. An increase in the number of cells will result in an increase in the formazan obtained and in an increase in absorbance. […]

As to `Cc1c(C)c2c(c(C)c1O)CC[C@@](C)(CCC[C@H](C)CCC[C@H](C)CCCC(C)C)O2` [α-tocopherol, reference compound], in data set [1], the “Concentration of ROS products compared to control cells treated with H2O2” value was “decrease in the concentration of ROS products”.

In the case of `CNCCCCNCCCN` [N-methylspermidine, N-(3-aminopropyl)-N′-methyl-1,4-butanediamine], in data set [1], the “Concentration of ROS products compared to control cells treated with H2O2” value was “decrease in the concentration of ROS products”. The “Antioxidant activity compared with that of spermidine” value in data set [1] (comparison with spermidine) is listed as “no significant difference”. Besides, in data set [2], the “Elongation of the hair shaft with respect to the vehicle” value was “improve the elongation of the hair shaft significantly”; the “Difference in hair shaft elongation between spermidine and N-methylspermidine” value is listed as “not statistically significant”. In addition, in data set [3] (0.5 μM each, 6 days), the “Effect of prolonging the anagen phase, compared with spermidine” value is on record as “greater effect of prolonging the anagen phase” and the “Number of hairs entering the catagen phase, compared with spermidine” value is given as “significantly lower”. Moreover, the “Follicles entering catagen spontaneously” value in data set [3] (0.5 μM, after 6 days of treatment, vehicle more than 60%) is roughly 30%. Besides, the “Percentage of hair follicles in the anagen phase” value in data set [3] (0.5 μM, after 6 days of treatment, versus vehicle) is “significant increase”. Further, the “Nitroso derivatives after 72 h exposure” value in data set [4] was “absent”.

Consider `NCCCCNCCCN` [spermidine, N′-(3-aminopropyl)-1,4-diaminobutane, reference compound], for which the “Cytotoxic effects / cell viability in percent against the control” value in data set [5] is reported as “no cytotoxic effects”. Besides, the “Concentration of ROS products compared to control cells treated with H2O2” value in data set [1] was “decrease in the concentration of ROS products”. The “Elongation of the hair shaft with respect to the vehicle” value in data set [2] is “improve the elongation of the hair shaft significantly”. The “Nitroso derivatives after 72 h exposure” value in data set [4] worked out at 2.3 ppm.

For `NCCCCN(CCCN)C1CCCCC1` [N-(3-aminopropyl)-N^1-cyclohexyl-1,4-butanediamine], in data set [4], the “Nitroso derivatives after 72 h exposure” value is recorded as “absent”.

Values taken from patent US9241888B2, “Pharmaceutical or cosmetic composition for treating alopecia” (GIULIANI S.P.A., priority 2012, dated 2016).
